Series [1] addresses T1, GRPR (Homo sapiens, UniProt P30550).
T1 construct: Both cell lines express GRPR; endogenous in cells; host or cells: PC-3 cells (dimeric TM also tested in LNCaP cells)
Description: Competitive binding assay against 125I-Tyr4-bombesin in PC3 cells. The method, then:
Then, ^125I-Tyr^4-BBN (0.05 nM final concentration) was added to each well, and the plates were incubated for 2 h at 4 °C. The cells were then rinsed twice with ice-cold phosphate-buffered saline (PBS) and harvested. The cells were placed on a Packard II gamma counter (PerkinElmer, Boston, MA, USA) to determine the cell-associated radioactivity. After decay correction, data were plotted using GraphPad Prism 9 Software (San Diego, CA, USA) using the sigmoidal dose–response equation, with counts per minute (cpm) of radioactivity bound versus the log of the concentration of NOTA-E5B9-BBN2 monomeric or dimeric TM for the determination of IC50 values. NOTA-E5B9-BBN2 dimeric TM was also tested in LNCaP cells. Gastrin-releasing peptide (GRP) served as the control.

Series [2] in a line: Dynamic PET imaging, tumor uptake in PC3 xenografts. It counts as in vivo, mouse. The following applies: male, BALB/c Nude, mouse, in vivo, iv, total radioactivity. The method, then: (§1) For PET experiments and as prostate cancer xenograft models, male PC3 and LNCaP tumor-bearing BALB/c Nude mice were used (body weight: 22−24 g, Charles River Laboratories, Saint-Constant, QC, Canada). To generate the tumor xenografts, about 5−6 × 10^6 PC3 cells in 100 μL of PBS or 20−25 × 10^6 LNCaP cells in 200 μL of PBS/Matrigel (50/50) were subcutaneously injected into the left shoulder of male BALB/c Nude mice. For the androgen-dependent LNCaP model, a 1.5 mg pellet containing dehydroepiandrosterone DHEA (60-day release; Innovative Research of America, Sarasota, FL, U.S.A.) was implanted subcutaneously into the upper right flank shortly before LNCaP cell injection. PC3 tumors and LNCaP tumors reached sizes of ∼300−500 mm^3 after 3−5 weeks and 6−8 weeks, respectively, and were used for the in vivo experiments. PET imaging of E5B9-^68Ga-NOTA-BBN2 monomeric and dimeric TMs was performed on an INVEON® PET/CT scanner (Siemens Preclinical Solutions, Knoxville, TN, USA). Prior to radiotracer injection, mice were anesthetized through inhalation of isoflurane in 40% oxygen/60% nitrogen (gas flow 1 L/min), and body temperature was kept constant at 37 °C. The mice were placed in a prone position in the center of the field of view. A transmission scan for attenuation correction was not acquired. Mice were injected with 4−8 MBq of E5B9-^68Ga-NOTA-BBN2 or E5B9-^68Ga-NOTA-(BBN2)2 in 150 μL 10% EtOH/saline solution through a tail vein catheter. For blocking studies, PC3- and LNCaP-tumor-bearing […] mice were pre-dosed i.v. with 300 μg of Ava-BBN2 (15 min prior to radiotracer injection) in 50 uL saline. Data acquisition was performed over 60 min in 3D list mode. The dynamic list mode data were sorted into sinograms with 54 time frames (10 × 2, 8 × 5, 6 × 10, 6 × 20, 8 × 60, 10 × 120, 6 × 300 s). The frames were reconstructed using maximum a posteriori (MAP) as the reconstruction mode. No correction for partial volume effects was applied. The image files were processed using the ROVER v2.0.51 software (ABX GmbH, Radeberg, Germany). […] ROIs covered all visible tumor mass of the subcutaneous tumors, and the thresholds were defined by 50% of the maximum radioactivity uptake level. Mean standardized uptake values [SUVmean = (activity/mL tissue)/(injected activity/body weight), […]] were calculated for each ROI, and time−activity curves (TACs) were generated. For each experimental group (different radiotracers and mouse tumor models as well as control and blocking experiments), n = 3–6 mice were measured. […] Blocking experiments were conducted in the same mice: first, a control scan was measured and then repeated 1–2 days after in the presence of a blocking concentration of 300 μg of Ava-BBN2. All semi-quantified PET data are presented as means ± SEM. […]

Series [3] concerns PC3 tumors. The description is as above. The format is in vivo, mouse. The following applies: PC3 tumors, pre-dosing i.v. with 300 µg Ava-BBN2 15 min before radiotracer, n = 3, p < 0.05. The method, then: as §1
The nature of series [4]: Dynamic PET imaging, tumor uptake in LNCaP xenografts. It counts as in vivo, mouse. The note with it: male, BALB/c Nude, mouse, in vivo, iv, total radioactivity. The method, then:
as §1

Series [5] relates to LNCaP cancer cells. It counts as cell-based, human. The following applies: 48 h. The method, then: (§2) Standard chromium (^51Cr)-release cytotoxicity assays were performed to assess the killing of tumor cells by redirected UniCAR T-cells as previously described. Briefly, chromium-labeled target cells were incubated for 48 h with UniCAR T-cells at an effector-to-target cell (E:T) ratio of 5:1 in the absence or presence of different TM concentrations. The radioactive signal in the supernatants was measured using a MicroBeta Microplate Counter (PerkinElmer, Rodgau, Germany).

Series [6] deals with PC3 cancer cells. The format is cell-based, human. The note with it: 48 h. The method, then:
as §2

[7] abbreviates: competition against 125I-Tyr4-bombesin (0.05 nM) in PC3 cells, 2 h at 4 °C, triplicates, gamma counter, mean ± SEM, read-out: IC50 (competition binding to GRPR).

This is an account of results in article PMC11941939, “Tackling Prostate Cancer with Theranostic E5B9-Bombesin Target Modules (TMs): From Imaging to Treatment with UniCAR T-Cells” (International Journal of Molecular Sciences, 2025).

Read-outs that look alike come from different tables or passages of the source. Starred links: 1 amine or outer side, 2 acyl side, 3 side chain; linkers in the order of their positions; H or OH if unused. Positions of bridges follow the written chain, without caps; N, C: chain ends. Non-standard residues stand in square brackets, D forms with d. Residues, ends and D or L forms follow the SMILES beside them. Chains are numbered I, II in the order given. *: point of attachment. NOTA(2S-Bn(4-NHCS)) = O=C(O)CN1CCN(CC(=O)O)C[C@H](Cc2ccc(NC(=S)*)cc2)N(CC(=O)O)CC1; X1 = O=C([C@H](CCCCn1nnc2c1-c1ccccc1CN([*:3])c1ccccc1-2)N[*:1])[*:2]; X2 = O=C(CCOCCOCCOCCOCCNC(=O)CCN1C(=O)CC([*:1])C1=O)NCCC(=O)[*:2]; γ4hIle = CC[C@H](C)[C@@H](CCC(=O)[*:2])N[*:1]; Tle = CC(C)(C)[C@H](N)C(=O)O; Ava = NCCCCC(=O)O; Sar = CNCC(=O)O

T1 sequence (P30550 whole entry): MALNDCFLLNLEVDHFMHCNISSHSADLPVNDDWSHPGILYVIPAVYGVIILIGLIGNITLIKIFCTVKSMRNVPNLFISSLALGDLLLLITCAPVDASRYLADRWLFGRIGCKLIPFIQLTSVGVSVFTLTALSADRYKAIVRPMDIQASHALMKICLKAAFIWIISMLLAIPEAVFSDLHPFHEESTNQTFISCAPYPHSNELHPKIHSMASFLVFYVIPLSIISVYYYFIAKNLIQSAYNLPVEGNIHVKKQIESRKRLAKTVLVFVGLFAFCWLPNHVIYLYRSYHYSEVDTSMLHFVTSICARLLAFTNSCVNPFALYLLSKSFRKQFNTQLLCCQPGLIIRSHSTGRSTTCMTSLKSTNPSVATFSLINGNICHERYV

Usually IC50 stands for the concentration that inhibits the measured activity by half. In series [1], `CSCC[C@H](NC(=O)[C@H](CC(C)C)NC(=O)[C@H](Cc1c[nH]cn1)NC(=O)CNC(=O)[C@@H](NC(=O)[C@H](C)NC(=O)[C@H](Cc1c[nH]c2ccccc12)NC(=O)[C@H](Cc1c[nH]cn1)NC(=O)[C@H](CC(N)=O)NC(=O)CNC(=O)[C@H](CCCN=C(N)N)NC(=O)[C@@H]1CCCN1C(=O)[C@H](Cc1ccc(O)cc1)NC(=O)[C@H](CCSC)NC(=O)[C@H](CCCCN)NC(=O)[C@@H](NC(=O)[C@H](CC(C)C)NC(=O)[C@@H](NC(=O)[C@@H](NC(=O)CNC(=O)CNC(=O)CNC(=O)[C@H](C)NC(=O)[C@@H]1CCCN1C(=O)[C@H](CC(C)C)NC(=O)[C@@H]1CCCN1C(=O)[C@@H](N)C(C)C)[C@@H](C)O)C(C)C)[C@@H](C)O)C(C)C)C(N)=O` [GRP, gastrin-releasing peptide, reference compound] showed an IC50 of 0.15 ± 0.05 nM.
With `CC[C@H](C)[C@@H](CCC(=O)N[C@H](C(N)=O)C(C)(C)C)NC(=O)[C@H](Cc1c[nH]cn1)NC(=O)CN(C)C(=O)[C@@H](NC(=O)[C@H](C)NC(=O)[C@H](Cc1c[nH]c2ccccc12)NC(=O)[C@H](CCC(N)=O)NC(=O)[C@H](CCCCn1nnc2c1-c1ccccc1CN(C(=O)CCNC(=O)CCOCCOCCOCCOCCNC(=O)CCN1C(=O)CC(SC[C@H](NC(=O)[C@H](Cc3ccc(O)cc3)NC(=O)[C@H](CCC(=O)O)NC(=O)[C@H](CC(=O)O)NC(=O)[C@@H](NC(=O)[C@@H](NC(=O)[C@H](CCC(=O)O)NC(=O)[C@@H]3CCCN3C(=O)[C@H](CC(C)C)NC(=O)[C@@H]3CCCN3C(=O)[C@H](CCCCN)NC(=O)[C@@H](N)CO)C(C)C)[C@@H](C)O)C(=O)O)C1=O)c1ccccc1-2)NC(=O)CCCCNC(=S)Nc1ccc(C[C@H]2CN(CC(=O)O)CCN(CC(=O)O)CCN2CC(=O)O)cc1)C(C)C` (stereo partly drawn) [monomeric ^68Ga-BBN2 TM, metal not drawn] (I: H-SKPLPEVTDEYC-OH / II: {NOTA(2S-Bn(4-NHCS))-Ava}-[X1]QWAV[Sar]H[γ4hIle][Tle]-NH2; linker I:12-II:1 via X2), the SUV at 1 h in series [2] amounted to 0.44 ± 0.01 SUV; in series [4], 0.44 ± 0.11 SUV. Moreover, the “in vivo blocking of tumor uptake” value in series [3] was found to be 39 ± 9%.
On to `CC[C@H](C)[C@@H](CCC(=O)N[C@H](C(N)=O)C(C)(C)C)NC(=O)[C@H](Cc1c[nH]cn1)NC(=O)CN(C)C(=O)[C@@H](NC(=O)[C@H](C)NC(=O)[C@H](Cc1c[nH]c2ccccc12)NC(=O)[C@H](CCC(N)=O)NC(=O)CCCCNC(=S)Nc1ccc(C[C@H]2CN(CC(=O)O)CCN(CC(=O)O)CCN2CC(=O)O)cc1)C(C)C` [^68Ga-NOTA-BBN2, metal not drawn, reference compound] ({NOTA(2S-Bn(4-NHCS))-Ava}-QWAV[Sar]H[γ4hIle][Tle]-NH2; N-terminus and C-terminus assumed), for which the SUV at 1 h in series [2] amounted to 0.46 ± 0.05 SUV; in series [4], 0.38 ± 0.02 SUV.
The EC50 is the concentration that produces a half-maximal response. On to `CC[C@H](C)[C@@H](CCC(=O)N[C@H](C(N)=O)C(C)(C)C)NC(=O)[C@H](Cc1c[nH]cn1)NC(=O)CN(C)C(=O)[C@@H](NC(=O)[C@H](C)NC(=O)[C@H](Cc1c[nH]c2ccccc12)NC(=O)[C@H](CCC(N)=O)NC(=O)[C@H](CCCCn1nnc2c1-c1ccccc1CN(C(=O)CCNC(=O)CCOCCOCCOCCOCCNC(=O)CCN1C(=O)CC(SC[C@H](NC(=O)[C@H](Cc3ccc(O)cc3)NC(=O)[C@H](CCC(=O)O)NC(=O)[C@H](CC(=O)O)NC(=O)[C@@H](NC(=O)[C@@H](NC(=O)[C@H](CCC(=O)O)NC(=O)[C@@H]3CCCN3C(=O)[C@H](CC(C)C)NC(=O)[C@@H]3CCCN3C(=O)[C@H](CCCCN)NC(=O)[C@@H](N)CO)C(C)C)[C@@H](C)O)C(=O)O)C1=O)c1ccccc1-2)NC(=O)CCCCNC(=S)Nc1ccc(C[C@H]2CN(CC(=O)O)CCN(CC(=O)O)CCN2CC(=O)O)cc1)C(C)C` (stereo partly drawn) [E5B9-NOTA-BBN2 TM] (I: H-SKPLPEVTDEYC-OH / II: {NOTA(2S-Bn(4-NHCS))-Ava}-[X1]QWAV[Sar]H[γ4hIle][Tle]-NH2; linker I:12-II:1 via X2), for which, in series [1] (setting [7]), the IC50 was found to be 190 ± 0.04 nM. Moreover, the EC50 in series [5] stood at 29.8 nM; in series [6] it was 32 nM.
With `CC[C@H](C)[C@@H](CCC(=O)N[C@H](C(N)=O)C(C)(C)C)NC(=O)[C@H](Cc1c[nH]cn1)NC(=O)CN(C)C(=O)[C@@H](NC(=O)[C@H](C)NC(=O)[C@H](Cc1c[nH]c2ccccc12)NC(=O)[C@H](CCC(N)=O)NC(=O)CCCCNC(=O)CC[C@H](NC(=O)[C@H](CCCCn1nnc2c1-c1ccccc1CN(C(=O)CCNC(=O)CCOCCOCCOCCOCCNC(=O)CCN1C(=O)CC(SC[C@H](NC(=O)[C@H](Cc3ccc(O)cc3)NC(=O)[C@H](CCC(=O)O)NC(=O)[C@H](CC(=O)O)NC(=O)[C@@H](NC(=O)[C@@H](NC(=O)[C@H](CCC(=O)O)NC(=O)[C@@H]3CCCN3C(=O)[C@H](CC(C)C)NC(=O)[C@@H]3CCCN3C(=O)[C@H](CCCCN)NC(=O)[C@@H](N)CO)C(C)C)[C@@H](C)O)C(=O)O)C1=O)c1ccccc1-2)NC(=O)CCCCNC(=S)Nc1ccc(C[C@H]2CN(CC(=O)O)CCN(CC(=O)O)CCN2CC(=O)O)cc1)C(=O)NCCCCC(=O)N[C@@H](CCC(N)=O)C(=O)N[C@@H](Cc1c[nH]c2ccccc12)C(=O)N[C@@H](C)C(=O)N[C@H](C(=O)N(C)CC(=O)N[C@@H](Cc1c[nH]cn1)C(=O)N[C@H](CCC(=O)N[C@H](C(N)=O)C(C)(C)C)[C@@H](C)CC)C(C)C)C(C)C` (stereo partly shown) [E5B9-NOTA-(BBN2)2 TM], the IC50 in series [1] (setting [7]) amounted to 0.7 ± 0.1 nM.
